We go through 18 compounds from patent publication US11351178B2, “Selective HDAC6 inhibitors” (ITALFARMACO S.P.A., priority 2017, dated 2022).

Data set [1] has as its system peripheral blood mononuclear cells (PBMCs). The experiment in a line: Cytotoxicity on PBMCs (CellTiter 96). The data set is classed as cell-based. To be noted: PBMC, 72 h; read-out: PBMC TOXICITY (72 h). As for the experimental part: (§1) Cytotoxic activity was evaluated on B 697 […] cell line for all synthesized compounds and on peripheral blood mononuclear cells (PBMCs) for compounds showing a good potency/selectivity profile.
(§2) Cells were seeded in plate (2×10^4 cells per well for 697, 5×10^5 cells per well for PBMCs). The test compounds (concentrations from 1.5 nM to 10000 nM for PBMCs and from 1 nM to 10000 nM for 697) were added after 24 hours and incubated 72 hours. The molecules cytotoxic activity was evaluated using CellTiter 96© Aqueous One Solution Cell Proliferation Assay (Promega), which measures the mitochondria function, following the manufacturer's instructions.

Data set [2] has as its target T1, recombinant human HDAC6 (Homo sapiens, UniProt Q9UBN7).
T1 sequence (Q9UBN7 1-1215): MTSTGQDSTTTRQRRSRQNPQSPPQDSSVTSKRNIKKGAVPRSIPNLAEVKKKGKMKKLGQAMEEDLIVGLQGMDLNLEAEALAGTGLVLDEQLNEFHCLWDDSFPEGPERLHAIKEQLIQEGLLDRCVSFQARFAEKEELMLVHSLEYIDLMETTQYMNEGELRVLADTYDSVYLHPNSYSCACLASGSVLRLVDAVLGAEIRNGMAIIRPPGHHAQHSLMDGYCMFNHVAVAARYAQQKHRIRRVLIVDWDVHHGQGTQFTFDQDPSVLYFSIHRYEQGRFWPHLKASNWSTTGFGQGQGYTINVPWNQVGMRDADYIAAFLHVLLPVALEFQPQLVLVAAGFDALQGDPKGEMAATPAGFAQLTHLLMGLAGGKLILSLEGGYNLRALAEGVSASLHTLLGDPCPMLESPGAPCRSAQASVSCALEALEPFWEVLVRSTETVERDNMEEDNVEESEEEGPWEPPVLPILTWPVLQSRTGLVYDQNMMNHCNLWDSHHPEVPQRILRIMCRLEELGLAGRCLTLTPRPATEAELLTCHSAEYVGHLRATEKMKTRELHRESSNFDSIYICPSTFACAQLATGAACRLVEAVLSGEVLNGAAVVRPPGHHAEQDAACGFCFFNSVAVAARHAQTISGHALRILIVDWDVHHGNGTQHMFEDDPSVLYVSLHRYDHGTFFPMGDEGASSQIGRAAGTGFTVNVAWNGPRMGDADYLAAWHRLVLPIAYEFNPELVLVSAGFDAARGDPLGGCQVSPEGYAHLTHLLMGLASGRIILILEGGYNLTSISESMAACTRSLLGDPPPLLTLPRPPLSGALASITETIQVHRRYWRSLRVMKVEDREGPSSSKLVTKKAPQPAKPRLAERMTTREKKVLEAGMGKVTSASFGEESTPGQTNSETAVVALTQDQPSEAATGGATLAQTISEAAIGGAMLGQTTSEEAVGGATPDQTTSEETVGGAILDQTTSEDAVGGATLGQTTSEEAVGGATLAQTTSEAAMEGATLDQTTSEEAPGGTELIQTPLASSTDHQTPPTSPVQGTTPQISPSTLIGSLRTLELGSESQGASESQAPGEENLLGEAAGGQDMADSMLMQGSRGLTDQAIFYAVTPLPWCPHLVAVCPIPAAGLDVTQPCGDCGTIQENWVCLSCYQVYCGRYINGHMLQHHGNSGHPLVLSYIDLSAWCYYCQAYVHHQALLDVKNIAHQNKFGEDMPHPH
Kind of data set: Enzymatic screening on recombinant human HDAC6. It counts as biochemical. To be noted: Table 2; read-out: HDAC6 IC50. An outline of the steps:
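Step one: pre-incubate recombinant human HDAC with test compound at 30 °C, with duration set per isoform. Step two: add fluorogenic-type acetyl-lysine substrate (FLUOR DE LYS, its Green variant, or trifluoroacetyl-L-lysine), 2× concentrated in Tris-HCl pH 8 buffer with NaCl, Tween-20 and glycerol. Step three: react at 30 °C.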

The subject of data set [3] is B 697 promyelocytic cell line. The experiment in a line: Cytotoxicity on 697 cell line (CellTiter 96). It counts as cell-based. The settings on record: 72 hours incubation, read-out: 697 TOXICITY
Here is the method:
as §1, §2

Data set [4] in a line: Stability in rat plasma. To be noted: after 4 hours, 37° C. It counts as in vitro ADME. An outline of the steps:
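Compounds incubated at 37° C in rat or human plasma at 50 μM (UV/HPLC) or 1 or 2 μM (LC-MS/MS) for 0–4 h. Reaction stopped with acidified acetonitrile on ice; percent remaining versus initial amount and plasma half-life calculated.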

A short description of data set [5]: Stability to Phase I metabolism in rat S9 liver fraction. The data set is classed as in vitro ADME. To be noted: after 90 min, 37° C. Put shortly:
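Compounds were incubated with rat or human liver S9 fraction at 37 °C for up to 90 min. Reactions were quenched on ice with acidified acetonitrile and analysed by HPLC-UV or LC-MS/MS. Percent remaining versus time zero and intrinsic clearance were calculated.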

pIC50: −log10 of the molar value.

Take `NCc1ccc(-c2nnn(Cc3c(F)cc(C(=O)NO)cc3F)n2)cc1` [comp. 175, 4-[[5-[4-(aminomethyl)phenyl]tetrazol-2-yl]methyl]-3,5-difluoro-benzenecarbohydroxamic acid]: the pIC50 in data set [1] was 5.90; in data set [2], 8.40; in data set [3], 5.00.
In the case of `O=C(NO)c1cc(F)c(Sc2nnc(CN3CCCC3)n2Cc2ccccc2)c(F)c1` [comp. 141, 4-[[4-benzyl-5-(pyrrolidin-1-yl-methyl)-1,2,4-triazol-3-yl]sulfanyl]-3,5-difluoro-benzenecarbohydroxamic acid], the “residual percentage in rat plasma” value in data set [4] turned out to be 73%. Also, the pIC50 in data set [2] is 7.60; in data set [3], below 5.00. Moreover, in data set [5], the “residual percentage in rat S9 fraction” value came out at 36%.
Take `COc1cccc(-c2nnc(Sc3ccc(C(=O)NO)cc3)n2C)c1` [comp. 78, 4-[[5-(3-methoxyphenyl)-4-methyl-1,2,4-triazol-3-yl]sulfanyl]benzenecarbohydroxamic acid]: the pIC50 in data set [1] was 5.22; in data set [2] it was 7.70; in data set [3] it was 4.65.
Turning to `O=C(NO)c1cc(F)c(Cn2nnnc2-c2nccc3ccccc23)c(F)c1` [comp. 94, 3,5-difluoro-4-[[5-(1-isoquinolyl)tetrazol-1-yl]methyl]benzenecarbohydroxamic acid], the “residual percentage in rat plasma” value in data set [4] was found to be 75%. Also, the pIC50 in data set [2] is 8.15; in data set [3], 6.04. The “residual percentage in rat S9 fraction” value in data set [5] is 22%.
As for `Cn1c(Sc2c(F)cc(C(=O)NO)cc2F)nnc1-c1cccc(CN2CCOCC2)c1` [comp. 182, 3,5-difluoro-4-[[4-methyl-5-[3-(morpholinomethyl)phenyl]-1,2,4-triazol-3-yl]sulfanyl]benzenecarbohydroxamic acid], the figures for the pIC50 in data set [1], in data set [2] and in data set [3] were at most 4.00, 7.80 and 4.30, respectively.
Turning to `Cn1c(Sc2c(F)cc(C(=O)NO)cc2F)nnc1-c1cccc(CN2CCCCC2)c1` [comp. 181, 3,5-difluoro-4-[[4-methyl-5-[3-(1-piperidylmethyl)phenyl]-1,2,4-triazol-3-yl]sulfanyl]benzenecarbohydroxamic acid], the pIC50 in data set [1] was below 5.00; in data set [2], 8.00; in data set [3], 4.30.
Turning to `CN1CCN(S(=O)(=O)c2cccc(-c3nnc(Sc4c(F)cc(C(=O)NO)cc4F)n3C)c2)CC1` [comp. 151, 3,5-difluoro-4-[[4-methyl-5-[3-(4-methylpiperazin-1-yl)sulfonylphenyl]-1,2,4-triazol-3-yl]sulfanyl]benzenecarbohydroxamic acid], the “residual percentage in rat plasma” value in data set [4] is given as 87%. In addition, the pIC50 was 8.05 in data set [2] and 6.54 in data set [3]. Also, the “residual percentage in rat S9 fraction” value in data set [5] is on record as 62%.
Consider `Cn1c(Sc2c(F)cc(C(=O)NO)cc2F)nnc1C(C)(C)c1ccccc1` [comp. 4, 3,5-difluoro-N-hydroxy-4-((4-methyl-5-(2-phenylpropan-2-yl)-4H-1,2,4-triazol-3-yl)thio)benzamide], for which the “residual percentage in rat plasma” value in data set [4] amounted to 106%. Also, the pIC50 was 7.70 in data set [2] and below 5.00 in data set [3]. Besides, the “residual percentage in rat S9 fraction” value in data set [5] came out at 34%.
`COC(=O)c1ccc(Cc2nnn(Cc3c(F)cc(C(=O)NO)cc3F)n2)cc1` [comp. 154, methyl 4-[[2-[[2,6-difluoro-4-(hydroxycarbamoyl)phenyl]methyl]tetrazol-5-yl]methyl]benzoate]: the pIC50 in data set [1] is below 5.00; in data set [2], 7.49; in data set [3], 4.64.
Take `O=C(NO)c1cc(F)c(Sc2nnc(-c3cccnc3)n2Cc2ccco2)c(F)c1` [comp. 147, 3,5-difluoro-4-[[4-(2-furylmethyl)-5-(3-pyridyl)-1,2,4-triazol-3-yl]sulfanyl]benzenecarbohydroxamic acid]: the “residual percentage in rat plasma” value in data set [4] is on record as 89%. For the same compound, the pIC50 in data set [2] is 7.80; in data set [3], below 5.00. Besides, in data set [5], the “residual percentage in rat S9 fraction” value amounted to 76%.
With `O=C(NO)c1cc(F)c(Cn2nnnc2-c2scc3c2OCCO3)c(F)c1` [comp. 5, 4-((5-(2,3-dihydrothieno[3,4-b][1,4]dioxin-5-yl)-1H-tetrazol-1-yl)methyl)-3,5-difluoro-N-hydroxybenzamide], in data set [4], the “residual percentage in rat plasma” value was determined as 97%. Further, the pIC50 in data set [2] was 7.77; in data set [3] it was 4.05. For the same compound, in data set [5], the “residual percentage in rat S9 fraction” value worked out at 36%.
Regarding `Cn1c(Sc2ccc(C(=O)NO)cc2)nnc1-c1ccc2c(c1)OCO2` [comp. 84, 4-[[5-(1,3-benzodioxol-5-yl)-4-methyl-1,2,4-triazol-3-yl]sulfanyl]benzenecarbohydroxamic acid], the pIC50 is 5.35 in data set [1], 7.68 in data set [2] and 5.28 in data set [3].
As to `NCc1ccc(-c2nnnn2Cc2c(F)cc(C(=O)NO)cc2F)cc1` [comp. 176, 4-[[5-[4-(aminomethyl)phenyl]tetrazol-1-yl]methyl]-3,5-difluoro-benzenecarbohydroxamic acid], the pIC50 was 5.28 in data set [1], 7.26 in data set [2] and 4.30 in data set [3].
As for `COC(=O)c1ccc(-c2nnnn2Cc2ccc(C(=O)NO)cc2)nc1` [comp. 157, methyl 6-[1-[[4-(hydroxycarbamoyl)phenyl]methyl]tetrazol-5-yl]pyridine-3-carboxylate], the values for the pIC50 in data set [1], in data set [2] and in data set [3] were 6.03, 7.57 and 6.04, respectively.
Take `CN1CCN(c2cccc(-c3nnc(Sc4c(F)cc(C(=O)NO)cc4F)n3C)c2)CC1` [comp. 166, 3,5-difluoro-4-[[4-methyl-5-[3-(4-methylpiperazin-1-yl)phenyl]-1,2,4-triazol-3-yl]sulfanyl]benzenecarbohydroxamic acid]: the pIC50 is below 5.00 in data set [1], 8.05 in data set [2] and 4.21 in data set [3].
As for `Cn1c(Sc2c(F)cc(C(=O)NO)cc2F)nnc1C1(c2ccccn2)CC1` [comp. 177, 3,5-difluoro-4-[[4-methyl-5-[1-(2-pyridyl)cyclopropyl]-1,2,4-triazol-3-yl]sulfanyl]benzenecarbohydroxamic acid], the pIC50 is below 5.00 in data set [1], 7.68 in data set [2] and 4.30 in data set [3].
As for `Cn1c(Sc2c(F)cc(C(=O)NO)cc2F)nnc1-c1cccc(S(=O)(=O)N2CCN(Cc3ccccc3)CC2)c1` [comp. 152, 4-[[5-[3-(4-benzylpiperazin-1-yl)sulfonylphenyl]-4-methyl-1,2,4-triazol-3-yl]sulfanyl]-3,5-difluoro-benzenecarbohydroxamic acid], the “residual percentage in rat plasma” value in data set [4] is 113%. The pIC50 is 7.66 in data set [2] and 5.84 in data set [3]. Also, in data set [5], the “residual percentage in rat S9 fraction” value is listed as 31%.
Consider `O=C(NO)c1cc(F)c(Cn2nnnc2-c2ccc(C(F)(F)F)cn2)c(F)c1` [comp. 129, 3,5-difluoro-4-[[5-[5-(trifluoromethyl)-2-pyridyl]tetrazol-1-yl]methyl]benzenecarbohydroxamic acid], for which the “residual percentage in rat plasma” value in data set [4] is recorded as 93%. Moreover, the values for the pIC50 in data set [2] and in data set [3] were 7.89 and 4.88, respectively. The “residual percentage in rat S9 fraction” value in data set [5] was determined as 45%.
